The text below walks through data of patent US8288393B2, “Nitrogen-containing heterocyclic compound and pest control agent” (Nippon Soda Co., Ltd., priority 2007, dated 2012).

Where only a bound is given, the exact number is not on record here.

The test system of one data set is Aphis gossypii. The experiment in a line: Efficacy against Aphis gossypii (spray on infested cucumber plants). The following applies: 125 ppm emulsion sprayed on cucumber plants infested with nymphs, 25° C., 5 days later. It counts as in vivo. The text has this:
Cucumber plants planted in a no. 3 pot for which 10 days had elapsed since germination were inoculated with adult Aphis gossypii. The adult insects were removed after 1 day, and a chemical liquid diluted with water to a compound concentration of 125 ppm was sprayed onto the cucumber plants infested with nymphs laid by the adults in accordance with the emulsion formula indicated in the aforementioned Preparation Example 2. The cucumber plants were placed in a constant temperature chamber at a temperature of 25° C. and humidity of 65% and insect viability was investigated 5 days later followed by determination of insect mortality rate. The test was repeated twice.

Another data set relates to Spodoptera litura. In words: Efficacy against Spodoptera litura (cabbage leaf dip). It counts as in vivo. The following applies: 125 ppm emulsion, cabbage leaves immersed, 2nd instar larvae, 25° C., 5 days later. The procedure:
(§1) The emulsion indicated in the aforementioned Preparation Example 2 was diluted with water to a compound concentration of 125 ppm in accordance with the formula thereof. After immersing cabbage leaves in the chemical liquid for 30 seconds and allowing to air dry, the cabbage leaves were placed in a Petri dish lined with filter paper and inoculated with five 2nd instar Spodoptera litura larvae. A glass cover was placed over the Petri dish, the dish was placed in a constant temperature chamber at a temperature of 25° C. and humidity of 65%, and viability was investigated 5 days later followed by determination of insect mortality rate. The test was repeated twice.

Data set [1] relates to Tetranychus urticae resistant to organic phosphorous agents. In words: Efficacy against Tetranychus urticae (spray on kidney bean plants). It counts as in vivo. The following applies: 125 ppm wettable powder sprayed on kidney bean plants, female adults, 25° C., 3 days later. An excerpt:
After inoculating the first true leaves of kidney bean plants planted in a no. 3 pot for which 7 to 10 days had elapsed since germination with female adult Tetranychus urticae resistant to organic phosphorous agents, a chemical liquid diluted with water to a compound concentration of 125 ppm was sprayed onto the kidney bean plants in accordance with the formula of the wettable powder indicated in the aforementioned Preparation Example 1. The kidney bean plants were placed in a constant temperature chamber at a temperature of 25° C. and humidity of 65% and insect mortality rate was investigated 3 days later. The test was repeated twice.

The next data set relates to Pseudaletia separata. The experiment in a line: Efficacy against Pseudaletia separata (corn leaf dip). It counts as in vivo. The note with it: 125 ppm wettable powder, corn leaves immersed, 2nd instar larvae, 25° C., 5 days later. Here is the method:
as §1, with “The wettable powder” for “The emulsion”, “Example 1” for “Example 2”, “immersing corn” for “immersing cabbage”, “the corn” for “the cabbage”, “instar Pseudaletia separata” for “instar Spodoptera litura”

In a further data set the test system is Culex pipiens molestus. In words: Efficacy against Culex pipiens molestus (larvae in water). The following applies: in vivo. The procedure:
0.225 ml of distilled water containing 10 Culex pipiens molestus larvae 1 day after hatching and aquarium fish food (TetraMin, Tetra Japan) were placed in a 0.3 ml polystyrene test container.
The compounds were prepared as 1% solutions using DMSO (containing 0.5% Tween 20), and further diluted to 0.01% with distilled water. 0.025 ml of the diluted chemical liquid were added to the test container containing the Culex pipiens molestus larvae followed by stirring (final compound concentration: 0.001%).
Insect mortality rates were invested 2 days after allowing to stand at 25° C. The test was repeated twice.

`Cc1nc(N(C)C)nc(OC(=O)N(C)C)c1C` [pirimicarb] registered an insect mortality rate with Aphis gossypii of 9%.

For `Cc1cc(Cl)ccc1N=CN(C)C` [chlordimeform], the insect mortality rate (with Spodoptera litura; in data set [1]; in the data set on Pseudaletia separata) was 40% in each case.

With “N-{[5-(3,5-dichlorophenyl)-5-trifluoromethyl-4,5-dihydroisoxazol-3-yl]indan-1-yl}-propionic acid amide [1-6]”, in the data set on Culex pipiens molestus, the insect mortality rate is reported as not below 90%.
